Measurements published in ChEMBL document CHEMBL2016506, “Glucose-aspirin: Synthesis and in vitro anti-cancer activity studies” (Bioorg Med Chem Lett, 2012).
The source made the active and inactive calls. The rule behind the calls is not given here.

Columns and labels:
[1] = system: SK-BR-3; assay: Cytotoxicity against human SKBR3 cells after 24 hrs by alamar blue assay; type: functional, cell-based; details: SK-BR-3, 24 h
[2] = system: WI-38; assay: Cytotoxicity against human WI38 cells after 24 hrs by alamar blue assay; type: cell-based; details: WI-38, 24 h
[3] = system: PANC-1; assay: Cytotoxicity against human PANC1 cells after 24 hrs by alamar blue assay; type: functional, cell-based; details: PANC-1, 24 h
[4] = system: PC-3; assay: Cytotoxicity against human PC3 cells after 24 hrs by alamar blue assay; type: functional, cell-based; details: PC-3, 24 h
[5] = system: SK-BR-3; assay: Cytotoxicity against human SKBR3 cells after 48 hrs by alamar blue assay; type: functional, cell-based; details: SK-BR-3, 48 h
[6] = system: WI-38; assay: Cytotoxicity against human WI38 cells after 48 hrs by alamar blue assay; type: cell-based; details: WI-38, 48 h
[7] = system: PANC-1; assay: Cytotoxicity against human PANC1 cells after 48 hrs by alamar blue assay; type: functional, cell-based; details: PANC-1, 48 h
[8] = system: PC-3; assay: Cytotoxicity against human PC3 cells after 48 hrs by alamar blue assay; type: functional, cell-based; details: PC-3, 48 h
[9] = system: SK-BR-3; assay: Ratio of IC50 for aspirin to compound IC50 for human SKBR3 cells; type: functional
[10] = system: PANC-1; assay: Ratio of IC50 for aspirin to compound IC50 for human PANC1 cells; type: functional
[11] = system: PC-3; assay: Ratio of IC50 for aspirin to compound IC50 for human PC3 cells; type: functional
[12] = system: SK-BR-3; assay: Growth inhibition of human SKBR3 cells at 2 x 10 '-3 M to 1.5 x 10^-4 M after 24 hrs by alamar blue assay; type: functional
[13] = system: PANC-1; assay: Growth inhibition of human PANC1 cells at 2 x 10 '-3 M to 1.5 x 10^-4 M after 24 hrs by alamar blue assay; type: functional
[14] = system: PC-3; assay: Growth inhibition of human PC3 cells at 2 x 10 '-3 M to 1.5 x 10^-4 M after 24 hrs by alamar blue assay; type: functional
[15] = system: WI-38; assay: Cytotoxicity against human WI38 cells at 300 uM after 24 hrs by alamar blue assay; type: cell-based; details: wi-38, 24 h
[16] = system: SK-BR-3; assay: Growth inhibition of human SKBR3 cells at 300 uM after 48 hrs by alamar blue assay; type: functional
[17] = system: SK-BR-3; assay: Growth inhibition of human SKBR3 cells at 150 uM after 48 hrs by alamar blue assay; type: functional; details: SK-BR-3, 48 h, read-out: GI
[18] = system: PANC-1; assay: Growth inhibition of human PANC1 cells at 300 uM after 48 hrs by alamar blue assay; type: functional
[19] = system: PANC-1; assay: Growth inhibition of human PANC1 cells at 150 uM after 48 hrs by alamar blue assay; type: functional; details: PANC-1, 48 h, read-out: GI
[20] = system: PC-3; assay: Growth inhibition of human PC3 cells at 300 uM after 48 hrs by alamar blue assay; type: functional
[21] = system: PC-3; assay: Growth inhibition of human PC3 cells at 150 uM after 48 hrs by alamar blue assay; type: functional; details: PC-3, 48 h, read-out: GI
[22] = system: WI-38; assay: Growth stimulation of human WI38 cells at 2 x 10^-3 to 3 x 10^-4 M after 24 to 48 hrs by alamar blue assay; type: functional, cell-based
[23] = system: PC-3; assay: Growth stimulation of human PC3 cells at 2 x 10^-3 M after 24 to 48 hrs by alamar blue assay; type: functional, cell-based
[24] = Drug metabolism in human serum assessed as compound hydrolysis after 3 hrs by HPLC analysis; type: ADME, cell-free; details: read-out: Drug metabolism
[25] = Aqueous solubility of the compound in 300 ml water; type: physicochemical; details: buffer
[26] = system: SK-BR-3; assay: Growth inhibition of human SKBR3 cells at 300 uM after 24 hrs by alamar blue assay; type: functional; details: SK-BR-3, 24 h, read-out: GI
[27] = system: PANC-1; assay: Growth inhibition of human PANC1 cells at 300 uM after 24 hrs by alamar blue assay; type: functional; details: PANC-1, 24 h, read-out: GI
[28] = system: PC-3; assay: Growth inhibition of human PC3 cells at 300 uM after 24 hrs by alamar blue assay; type: functional; details: PC-3, 24 h, read-out: GI
[29] = system: WI-38; assay: Cytotoxicity against human WI38 cells at 2 x 10^-3 to 3 x 10^-4 M after 24 hrs by alamar blue assay; type: cell-based; details: wi-38, 24 h
[30] = system: WI-38; assay: Cytotoxicity against human WI38 cells at 2 x 10^-3 to 3 x 10^-4 M after 48 hrs by alamar blue assay; type: cell-based; details: wi-38, 48 h
[31] = Aqueous solubility of the compound in 43 ml water; type: physicochemical; details: buffer
[32] = system: PANC-1; assay: Growth inhibition of human PANC1 cells at 2 x 10^-3 to 1.5 x 10^-4 M after 48 hrs by alamar blue assay; type: functional, cell-based
[33] = system: SK-BR-3; assay: Growth inhibition of human SKBR3 cells at 2 x 10^-3 to 1.5 x 10^-4 M after 48 hrs by alamar blue assay; type: functional, cell-based
[34] = system: PC-3; assay: Growth inhibition of human PC3 cells at 2 x 10^-3 to 1.5 x 10^-4 M after 48 hrs by alamar blue assay; type: functional, cell-based

CC(=O)Oc1ccccc1C(=O)O[C@@H]1[C@@H](O)[C@@H](O)O[C@H](CO)[C@H]1O
IC50 [1]: 201 µM | IC50 [2]: 376 µM | IC50 [3]: 399 µM | IC50 [4]: 83.2 µM | IC50 [5]: 87.8 µM | IC50 [6]: 310 µM | IC50 [7]: 90.5 µM | IC50 [8]: 81.4 µM | Ratio IC50 [9]: 8 | Ratio IC50 [10]: 8 | Ratio IC50 [11]: 8 | growth inhibition (GI) [12]: 20% | growth inhibition (GI) [13]: 20% | growth inhibition (GI) [14]: 20% | Activity [15]: Non-toxic | inhibition of growth at 300 µM ([16]; SK-BR-3, 48 h, read-out: GI): 90% | inhibition of growth at 150 µM [17]: 60% | inhibition of growth at 300 µM ([18]; PANC-1, 48 h, read-out: GI): 70% | inhibition of growth at 150 µM [19]: 60% | inhibition of growth at 300 µM ([20]; PC-3, 48 h, read-out: GI): 85% | inhibition of growth at 150 µM [21]: 65% | Activity [22]: Active | Activity [23]: Active | metabolised at 3 h [24]: 27% | solubility [25]: soluble | inhibition of growth at 300 µM [26]: 60% | inhibition of growth at 300 µM [27]: 60% | inhibition of growth at 300 µM [28]: 60%

CC(=O)Oc1ccccc1C(=O)O [ASPIRIN]
IC50 [4]: 771 µM | IC50 [8]: 782 µM | growth inhibition (GI) [12]: inactive | growth inhibition (GI) [13]: inactive | growth inhibition (GI) [14]: inactive | growth inhibition (GI) [16]: Active | growth inhibition (GI) [18]: Active | growth inhibition (GI) [20]: Active | Activity [29]: Toxic | Activity [30]: Toxic | metabolised at 3 h [24]: 47% | solubility [31]: soluble | growth inhibition (GI) [32]: inactive | growth inhibition (GI) [33]: inactive | growth inhibition (GI) [34]: inactive
